{
  "source": "patent US5863776A",
  "about": "“Method of preparing apoenzyme” (Research Development Foundation, priority 1996, dated 1999)",
  "key": {"[1]": {"biological_target": "T1, MAO B (Homo sapiens, UniProt P27338)", "T1 construct": "expressed in transfected cells; host or cells: COS-7 (African green monkey), riboflavin-containing (Rib+) or riboflavin-depleted (Rib-), transient electroporation", "T1 sequence (P27338 1-520)": "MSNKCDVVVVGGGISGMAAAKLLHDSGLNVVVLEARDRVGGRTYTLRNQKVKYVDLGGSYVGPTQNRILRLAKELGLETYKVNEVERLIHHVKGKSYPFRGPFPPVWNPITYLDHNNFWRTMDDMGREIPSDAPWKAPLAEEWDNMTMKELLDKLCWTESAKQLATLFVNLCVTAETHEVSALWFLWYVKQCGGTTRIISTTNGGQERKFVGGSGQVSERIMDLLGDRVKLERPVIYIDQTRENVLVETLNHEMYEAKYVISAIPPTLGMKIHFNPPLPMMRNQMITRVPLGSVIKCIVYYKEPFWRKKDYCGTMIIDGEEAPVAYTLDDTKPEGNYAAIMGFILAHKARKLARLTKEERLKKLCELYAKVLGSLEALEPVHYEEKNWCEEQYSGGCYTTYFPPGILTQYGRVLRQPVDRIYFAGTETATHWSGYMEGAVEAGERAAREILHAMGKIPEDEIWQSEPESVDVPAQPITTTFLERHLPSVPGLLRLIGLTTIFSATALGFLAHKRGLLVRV", "assay": "FAD coupling in intact cells: MAO B enzymatic activity after electroporation of MAO B cDNA with cofactor into Rib^- COS-7 cells ([^14 C] benzylamine substrate)", "type": "cell-based", "parameters": "Percent of Holo-MAO B Activity: concentration or dose not given beside the values", "protocol": "(§1) Wild-type or mutant MAO B cDNAs were transiently transfected into COS-7 cells by electroporation (23) as previously described (18). Briefly, Rib^+ - or Rib^- COS-7 cells were harvested during late log phase growth and resuspended to a concentration of 3.1×10^6 cells/ml in either riboflavin-containing or riboflavin-free medium, respectively. Wild-type or mutant MAO B cDNAs ([…]) were added to 0.8 ml of cell suspension. […] Electroporation was carried out in a Bio-Rad Gene Pulser with a setting of 250 V and 500 μF. Cells were resuspended in 15 ml of riboflavin-containing or riboflavin-free medium and incubated at 37° C. with 5% CO2. Transfected COS-7 cells were harvested at 48 hours and homogenized in a lysis solution containing 20 mM Tris-HCl, 1 mM EDTA, 0.5 mM PMSF, pH 8.0. The homogenate was diluted with an equal volume of the same buffer supplemented with 300 mM NaCl to obtain a 150 mM final NaCl concentration. Triton X-100 (Pierce) was added to the lysate to give a final concentration of 0.25%, and the samples were allowed to stir for 50 min. at 4° C. to extract MAO B from the outer mitochondrial membrane. After Triton extraction, the lysate was centrifuged at 1300×g for 5 min. at 4° C. to remove insoluble cell debris.\n(§2) MAO B activity was assayed radiometrically by a modification of the method of Wurtman and Axelrod (26) as described previously (18). Briefly, the reaction mixture contained 200 μl of 50 mM sodium phosphate buffer (pH 7.4), 3.6 nmole of 55 mCi/mmol [^14 C] benzylamine hydrochloride (Amersham), 10 nmoles of unlabeled benzylamine and 10 μl of cell lysate. Samples were run in triplicate, and one out of each set was denatured with […] of 6N HCl prior to the addition of substrate to serve as an internal control. All reactions were incubated for 9 minutes at 37° C., and terminated by the addition of 25 μl of 6N HCl. The reaction product was extracted with 500 μl of toluene, and an aliquot (200 μl) of the organic phase from each sample was counted in liquid scintillation fluid (Bio-Safe) in a Beckman LB 3801 scintillation counter.\nFMN or riboflavin were also capable of restoring approximately 75% of MAO B holoenzyme activity. However, only 40% of MAO B holoenzyme activity was obtained by the addition of 8α-hydroxyriboflavin.\nVarious cofactors were added with MAO B cDNA into Rib^- COS7 cells"}, "[2]": {"biological_target": "T1, MAO B", "assay": "Quantitation of expressed MAO B protein by ELISA in transfected COS-7 cells", "type": "cell-based", "parameters": "MAO B Expressed: unit not given here", "conditions": "cofactor added with MAO B cDNA into Rib^- COS-7 cells; 48 hours; mean ± SE, three experiments", "protocol": "Total protein concentrations of samples containing MAO B holoenzyme, apoenzyme, or variant MAO Bs were determined by a MicroBCA kit (Pierce). All samples were then adjusted to equal protein concentrations and assayed for MAO B protein by ELISA using a modification of the method of Yeomanson and Billett (25) as described previously (18).\nMAO B cDNA was expressed sequentially at different time intervals in these cells during this riboflavin depletion process (FIG. 2). Each data point in FIG. 2 represents an individual expression assay. For each assay, a sample of COS-7 cells grown in riboflavin-free medium were transfected with MAO B cDNA via electroporation. Concurrently, Rib^+ COS-7 cells were transfected with MAO B cDNA to serve as a control. Following incubation for 48 hours, the cells were homogenized and assays were performed to determine protein concentration, MAO B concentration by ELISA using polyclonal antibodies, and MAO B activity using [^14 C] benzylamine.\nAn equal amount of MAO B cDNA (15 μg) was expressed in both types of […]"}, "[3]": {"biological_target": "T1, MAO B", "assay": "FAD coupling in vitro (flavinylation assay in cell lysate, 30° C.)", "type": "biochemical", "conditions": "30° C.", "protocol": "(- - - x - - - ). […] The enzymatic activity of each sample was determined at 1 hour time intervals using [^14 C] benzylamine as substrate.\nApo-MAO B was obtained by expressing MAO B cDNA in Rib^- COS-7 cells. The cells were then harvested and homogenized as described above. One half of the lysate was stirred in the presence of 0.25% Triton X-100 at 4° C. for 50 min. to extract apo-MAO B from the outer mitochondrial membrane. The second half of the lysate was not extracted with Triton X-100 to permit MAO B to remain in the membrane. […] Assays were also carried out in the presence of an energy mixture (10 mM ATP, 32 mM PEP and 2.4 μg pyruvate kinase) and 25% glycerol in the reaction vials. Each sample was run in triplicate. After 1, 2 or 3 hours incubation at 30° C., each sample was assayed for MAO B activity as described below.\nas §2"}, "[4]": {"tested_on": "L-gulono-g-lactone oxidase", "conditions": "cited from earlier work"}, "[5]": {"tested_on": "MAO B", "assay": "[^14 C] FAD incorporation into wild-type or mutant MAO B in Rib^- COS-7 cells (immunoprecipitation, fluorography)", "type": "binding, human", "conditions": "about 59 kDa; equal MAO B concentrations", "protocol": "Mutagenesis was carried out by the method of Deng and Nickoloff (22) using a Transformer Site-directed Mutagenesis kit (Clontech). Glu in position 34 was replaced with Asp (E34D), Gln (E34Q), or Ala (E34A), and Val in position 10 was replaced with Ile (V10I) as described by Kwan et al. (18).\nas §1\nTransfected Rib^+ - or Rib^- COS-7 cells were homogenized, and extracted with 0.25% Triton X-100 for 50 minutes at 4° C. The cell lysates were centrifuged at 1300×g for 5 minutes, and an aliqout of each supernatant was analyzed for MAO B concentration by ELISA. All supernatants were then adjusted to equal MAO B concentration and incubated with polyclonal goat anti-MAO B antibody (10 μg) overnight at 4° C. Protein-G Sepharose beads (Pierce) were added (50 μl) and incubation was continued for 3 hours. The protein-G Sepharose/goat antibody/MAO B immmunocomplex was collected by centrifugation at 10,000×g for 20 seconds and washed 6 times with 150 μl of 20 mM Tris buffer, pH 8.0. The immunocomplex was then dissolved in SDS-PAGE sample buffer and analyzed by Western blot or fluorography.\nThe immunoprecipitated proteins (obtained as described above) were subjected to electrophoresis in a 10% SDS-polyacrylamide gel and examined by Western blotting as previously described (18). The immunoprecipitated proteins (obtained as described above) were subjected to electrophoresis in a 10% SDS-polyacrylamide gel. The SDS-PAGE gel was fixed by soaking in 7% acetic acid, 10% methanol, 83% H2 O for 1 hour, and then processed for fluorography as described by Bonner and Laskey (27). The dried gel was exposed to Kodak X-OMAT AR film at -80° C. for 2 weeks.\nThe expressed wild-type and variant MAO Bs were adjusted to equal concentrations using ELISA before immunoprecipitation, and then analyzed by fluorography. The amount of incorporation of [^14 C] […] FAD was incorporated into the enzyme."}, "[6]": {"tested_on": "MAO B", "conditions": "mutation at Glu^34; cited from earlier work"}},
  "note": "Entries after “also recorded” stand apart in the source; their conditions may differ.",
  "data": [
    {"molecule": "Cc1cc2nc3c(=O)[nH]c(=O)nc-3n(C[C@H](O)[C@H](O)[C@H](O)COP(=O)(O)OP(=O)(O)OC[C@H]3O[C@@H](n4cnc5c(N)ncnc54)[C@H](O)[C@@H]3O)c2cc1C", "note": "[FAD]", "values": [
      {"measurement": "restoration of active MAO B (in words)", "setting": "[1]; cofactor added with MAO B cDNA during electroporation", "result": "equal levels of MAO B activity; also recorded: active MAO B (containing FAD) was obtained"},
      {"measurement": "Enzymatic Activity", "setting": "[1]; cofactor added with MAO B cDNA into Rib^- COS-7 cells, 48 hours, mean ± SE, three experiments", "result": "0.85 ± 0.01 μmol benzylamine/minute/mg MAO"},
      {"measurement": "Percent of Holo-MAO B Activity", "setting": "[1]; relative to holo-MAO B expressed in Rib^+ COS-7 cells, 2880 min", "result": "~75", "unit": "%"},
      {"measurement": "MAO B Expressed", "setting": "[2]", "result": "0.86 ± 0.03"},
      {"measurement": "MAO B catalytic activity after adding exogenous FAD to apo-MAO B", "setting": "[3]; Triton extracted or non-extracted lysate", "result": "no MAO B catalytic activity was observed; also recorded: MAO B activity could not be regenerated"},
      {"measurement": "MAO B activity after adding exogenous FAD to apo-MAO B", "setting": "[3]; with energy mixture and glycerol", "result": "no MAO B activity was obtained; also recorded: unsuccessful"},
      {"measurement": "covalently bound FAD", "setting": "[4]", "result": "no covalently bound FAD could be obtained"},
      {"measurement": "enzymatic activity upon addition of FAD", "setting": "[4]", "result": "Enzymatic activity was observed"}
    ]},
    {"molecule": "E34A: MAO B with Glu in position 34 replaced with Ala (protein, UniProt P27338 2-520, looked up, variant E34A) Amine oxidase …: SNKCDVVVVGGGISGMAAAKLLHDSGLNVVVLAARDRVGGRTYTLRNQKVKYVDLGGSYVGPTQNRILRLAKELGLETYKVNEVERLIHHVKGKSYPFRGPFPPVWNPITYLDHNNFWRTMDDMGREIPSDAPWKAPLAEEWDNMTMKELLDKLCWTESAKQLATLFVNLCVTAETHEVSALWFLWYVKQCGGTTRIISTTNGGQERKFVGGSGQVSERIMDLLGDRVKLERPVIYIDQTRENVLVETLNHEMYEAKYVISAIPPTLGMKIHFNPPLPMMRNQMITRVPLGSVIKCIVYYKEPFWRKKDYCGTMIIDGEEAPVAYTLDDTKPEGNYAAIMGFILAHKARKLARLTKEERLKKLCELYAKVLGSLEALEPVHYEEKNWCEEQYSGGCYTTYFPPGILTQYGRVLRQPVDRIYFAGTETATHWSGYMEGAVEAGERAAREILHAMGKIPEDEIWQSEPESVDVPAQPITTTFLERHLPSVPGLLRLIGLTTIFSATALGFLAHKRGLLVRV", "values": [
      {"measurement": "[^14 C] FAD incorporation (band on fluorogram)", "setting": "[5]", "result": "did not exhibit bands"},
      {"measurement": "loss of activity (in words)", "setting": "[6]", "result": "complete loss of activity; also recorded: devoid of enzymatic activity"}
    ]},
    {"molecule": "E34Q: MAO B with Glu in position 34 replaced with Gln (protein, UniProt P27338 2-520, looked up, variant E34Q) Amine oxidase …: SNKCDVVVVGGGISGMAAAKLLHDSGLNVVVLQARDRVGGRTYTLRNQKVKYVDLGGSYVGPTQNRILRLAKELGLETYKVNEVERLIHHVKGKSYPFRGPFPPVWNPITYLDHNNFWRTMDDMGREIPSDAPWKAPLAEEWDNMTMKELLDKLCWTESAKQLATLFVNLCVTAETHEVSALWFLWYVKQCGGTTRIISTTNGGQERKFVGGSGQVSERIMDLLGDRVKLERPVIYIDQTRENVLVETLNHEMYEAKYVISAIPPTLGMKIHFNPPLPMMRNQMITRVPLGSVIKCIVYYKEPFWRKKDYCGTMIIDGEEAPVAYTLDDTKPEGNYAAIMGFILAHKARKLARLTKEERLKKLCELYAKVLGSLEALEPVHYEEKNWCEEQYSGGCYTTYFPPGILTQYGRVLRQPVDRIYFAGTETATHWSGYMEGAVEAGERAAREILHAMGKIPEDEIWQSEPESVDVPAQPITTTFLERHLPSVPGLLRLIGLTTIFSATALGFLAHKRGLLVRV", "values": [
      {"measurement": "[^14 C] FAD incorporation (band on fluorogram)", "setting": "[5]", "result": "did not exhibit bands"},
      {"measurement": "loss of activity (in words)", "setting": "[6]", "result": "complete loss of activity; also recorded: devoid of enzymatic activity"}
    ]}
  ]
}
